# Biological target: T1, porcine pancreatic lipase (Sus scrofa, UniProt P00591)
# T1 construct: purchased U.S. Biochemical Corporation
# T1 sequence (P00591 1-450): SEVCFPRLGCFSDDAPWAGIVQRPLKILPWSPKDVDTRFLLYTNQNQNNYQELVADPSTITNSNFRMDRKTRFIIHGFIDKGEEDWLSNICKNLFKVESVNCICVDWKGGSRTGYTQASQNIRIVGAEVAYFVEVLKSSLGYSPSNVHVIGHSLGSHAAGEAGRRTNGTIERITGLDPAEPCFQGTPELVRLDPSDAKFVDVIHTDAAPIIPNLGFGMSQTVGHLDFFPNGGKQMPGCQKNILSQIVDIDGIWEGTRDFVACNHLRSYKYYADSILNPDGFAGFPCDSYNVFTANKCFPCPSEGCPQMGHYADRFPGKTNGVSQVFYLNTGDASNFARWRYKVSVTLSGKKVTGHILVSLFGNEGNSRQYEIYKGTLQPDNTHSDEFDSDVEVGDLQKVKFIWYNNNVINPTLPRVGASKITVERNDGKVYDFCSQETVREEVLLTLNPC
# Assay: in vitro digestibility (lipase hydrolysis) screening test
# Format: biochemical
# Conditions: in 10 minutes with this enzyme system, 37° C., pH 7.1 phosphate buffer; triglyceride control
# Method: This example outlines the procedure for estimating the in vitro digestibility of the polyvinyl esters of this invention.
# Buffer: A pH 7.1 phosphate buffer is prepared by dissolving 6.8 g. KH2 PO4 in 1 L. of millipore filtered water (to yield 0.05M phosphate). Fifty mg. Ca(NO3)2 and 5.0 g. cholic acid (Na salt, an ox bile isolate from Sigma) are added to give 300 microM Ca^++ and 0.5% cholic acid in 0.05M phosphate. The pH is adjusted to approximately 7.1 with solid NaOH. Several drops of Baker "Resi-analyzed" toluene are added to prevent bacterial growth during storage at 3-5° C.
# Lipase: About 15 mg./mL commercial porcine pancreatic lipase from U.S. Biochemical Corporation is dissolved in buffer.
# (The proper concentration may be approximated by doubling the molecular weight of the lipid in question, dividing by 10, and diluting to the mark; this yields about 200 nanomoles per microliter.) This preparation affords the substrate to be used in the hydrolysis reactions. Fatty acids and glyceride standards from Nu Chek or Sigma are prepared for elution on TLC plates (prewashed with 1:1 chloroform/methanol) by diluting the substrate solution with 10:1 toluene (1 part substrate plus 9 parts toluene) in septum vials. […]
smiles,measurement,value
CCCCCCCC/C=C\CCCCCCCC(=O)OCC(COC(=O)CCCCCCC/C=C\CCCCCCCC)OC(=O)CCCCCCC/C=C\CCCCCCCC [triolein],hydrolysis by pancreatic lipase (in vitro digestibility),substantially hydrolyzed
